Measurements reported in patent US5547941A, “Cyclic dinucleoside diphosphorothioates, related compounds and pharmaceutical compositions” (priority 1991, dated 1996).
Counter-ions that a name gives are not always drawn.

Legend:
[1] = system: snake venom phosphodiesterase; experiment: Enzymatic hydrolysis of the deprotected dinucleotide thiophosphates by snake venom phosphodiesterase (HPLC substrate disappearance); assay type: biochemical, Crotalus durissus; conditions: for Substrate change on enzymatic hydrolysis (in words) / Reduction in the area of the HPLC peak relatively to the control: 37° C., pH 8
Description: The two samples XIIa and XIIb can independently undergo an enzymatic degradation by action of an exonuclease like snake venom phosphodiesterase following the disappearance of starting sample by HPLC along the time. […] Accordingly the configuration RP has to be assigned to XIIa and configuration SP to XIIb.
The relative susceptivity of the two substrates XIIa and XIIb to hydrolysis by snake venom phosphodiesterase was determined by incubating a solution (3 mM) of each substrate in Tris buffer (25 mM) containing MgCl2 (5 mM) at pH 8 with the enzyme (1 mg in 0.5 ml) (from Crotalus durissus) purchased from Boehringer and following the substrate disappearance by HPLC. In particular for each substrate a solution was prepared consisting of 700 μl of buffer, 200 μl of substrate solution plus 50 μl of enzyme solution. For each substrate a control was prepared with the same components and volumes except for the enzyme that was replaced by an equal volume of buffer. The four solutions (the two substrates and the two controls) were incubated at 37° C. taking aliquots from each solution at 0 time, 1 hour, 17 hours. Such aliquots were analyzed by HPLC (Whatman Partisphere C18, eluting with a linear gradient from 10% to 30% of methanol 0.1 M ammonium acetate) at 220 nm.

[2] = system: peripheral human lymphocytes; experiment: Cytotoxicity (10 μM stated to be non cytotoxic); assay type: cell-based
[3] = system: HIV; experiment: Anti-HIV activity on the RNA level: viral RNA synthesized by HIV-infected human lymphocytes (nucleic acid hybridization); assay type: cell-based, HIV (in peripheral human lymphocytes); conditions: for HIV RNA: 10 μM; for inhibition at 10 µM: Human immunodeficiency virus 1, Lymphocyte
Description: (§1) The compounds of the present invention were tested for antiviral activity on peripheral human lymphocytes isolated by density gradient centrifugation and stimulated with a mitogen.
(§2) Infection was performed with a standardized preparation of HIV and cells, cultured in the presence of the drug for 4 days.
The total amount of viral RNA synthesized by the infected lymphocytes was determined on day 2, 3 and 4 by a nucleic acid hybridization technique. By including a standard preparation of HIV-RNA, the amount of synthesized RNA was quantified.
(§3) The antiviral effect induced by the tested compounds was calculated from the inhibition of the evaluated parameters (i.e.: P24 or RNA) as compared with infected controls.

[4] = system: HIV; experiment: Anti-HIV activity on the protein level: viral core protein p24 in supernatant of HIV-infected mitogen-stimulated human lymphocytes (ELISA); assay type: cell-based, HIV (in peripheral human lymphocytes); conditions: for HIV p24 in supernatant: 10 μM; for inhibition at 10 µM: Human immunodeficiency virus 1, Lymphocyte
Description: as §1, §2
Individual cultures were established to measure viral replication 2, 3 and 4 days after infection. The amount of viral core protein P 24, synthesized and released by the infected cells, was determined in the supernatant of treated and untreated cells on days 2, 3 and 4 by an Elisa.
as §3

[5] = 72 h, Day 3, read-out: Inhibition of HIV replication on the RNA level
[6] = 96 h, Day 4, read-out: Inhibition of HIV replication on the RNA level
[7] = 72 h, Day 3, read-out: Inhibition of HIV replication on the protein level
[8] = 96 h, Day 4, read-out: Inhibition of HIV replication on the protein level

| Compound | Substrate change on enzymatic hydrolysis (in words) ([1]; after 1 hour) | Substrate change on enzymatic hydrolysis (in words) ([1]; after 17 hours) | Relative rate of enzymatic degradation ([1]; XIIa versus XIIb, snake venom phosphodiesterase) | Reduction in the area of the HPLC peak relatively to the control ([1]; after 1 hour) | Reduction in the area of the HPLC peak relatively to the control ([1]; after 17 hours) | Cytotoxicity [2] | HIV RNA ([3]; Day 2) | HIV RNA ([3]; Day 3, control 226 pg RNA/ml) | HIV RNA ([3]; Day 4, control 612 pg RNA/ml) | inhibition at 10 µM [3, 5] | inhibition at 10 µM [3, 6] | HIV p24 in supernatant ([4]; Day 2) | HIV p24 in supernatant ([4]; Day 3, control 2.2 ng p24/ml) | HIV p24 in supernatant ([4]; Day 4, control 21.5 ng p24/ml) | inhibition at 10 µM [4, 7] | inhibition at 10 µM [4, 8] |
| --- | --- | --- | --- | --- | --- | --- | --- | --- | --- | --- | --- | --- | --- | --- | --- | --- |
| Nc1ccn([C@H]2C[C@H](O[P@@](O)(=S)OC[C@H]3O[C@@H](n4ccc(N)nc4=O)C[C@@H]3O)[C@@H](CO)O2)c(=O)n1 [XIIb, 2'-deoxy-(SP)-P-thiocytidylyl-(3'→5 '-2-deoxycytidinesodium salt] | almost unchanged | almost unchanged |  |  |  |  |  |  |  |  |  |  |  |  |  |  |
| Nc1ccn([C@H]2C[C@H](O[P@](O)(=S)OC[C@H]3O[C@@H](n4ccc(N)nc4=O)C[C@@H]3O)[C@@H](CO)O2)c(=O)n1 [XIIa, 2'-deoxy-(RP)-P-thiocytidylyl-(3'→5')-2'-deoxycytidine sodium salt] |  |  | degraded much faster than the sample XIIb | 50% | 72% |  |  |  |  |  |  |  |  |  |  |  |
| Nc1ccn([C@H]2C[C@@H]3O[P@@](O)(=S)OC[C@H]4O[C@@H](n5ccc(N)nc5=O)C[C@@H]4O[P@](O)(=S)OC[C@H]3O2)c(=O)n1 [Compound IIb, Cyclo-2'-deoxy-(SP)-P-thiocytidylyl-(3'→5')-2'-deoxy-(RP)-P-thiocytidylyl-(3'→5'), sodium salt] |  |  |  |  |  | non cytotoxic | 0 pg RNA/ml | 0 pg RNA/ml | 266 pg RNA/ml | 100% | 56% | 0.0 ng p24/ml | 0.0 ng p24/ml | 3.7 ng p24/ml | 100% | 83% |
| Nc1ccn([C@H]2C[C@@H]3O[P@](O)(=S)OC[C@H]4O[C@@H](n5ccc(N)nc5=O)C[C@@H]4O[P@](O)(=S)OC[C@H]3O2)c(=O)n1 [Compound IIa, Cyclo-2'-deoxy-(RP)-P-thiocytidylyl-(3'→5')-2'-deoxy-(RP)-P-thiocytidylyl-(3'→5'), sodium salt] |  |  |  |  |  |  | 0 pg RNA/ml | 188 pg RNA/ml | 465 pg RNA/ml | 17% | 24% | 0.0 ng p24/ml | 0.1 ng p24/ml | 17.1 ng p24/ml | 97% | 20% |
